Data from US12014835B2, “Methods for evaluating therapeutic benefit of combination therapies” (Vanderbilt University, priority 2020, dated 2024).

Key:
Assay type in all cases: cell-based
A2058 = test: MuSyC analysis of PLX4720 in combination with NOX5 inhibitor DPI; conditions: in combination with PLX4720, A2058 cell line
From the text: FIG. 4E depicts pairwise comparison between SC01 and SC10 of DEGs (FDR<0.001) identified using DESeq2 (Love, M. I. et al., Genome Biol. (2014) Vol. 15, p. 550). The 200 identified DEGs (ANOVA between three subclones) are in black. The dotted red lines denote ±4-fold change. FIG. 4F depicts the dose-response surface for PLX4270 plus DPI (a NOX5 inhibitor) in the A2058 cell line, using the same format as in FIGS. 2B and 2C.
FIGS. 4G, 4H, and 4I depict additional MuSyC analysis of the effect of the combination therapy with PLX4270 and DPI. FIG. 4G depicts a DSD for NOX5i (DPI) plus BRAFi (PLX4720). FIG. 4H depicts the correlation (Pearson r) of NOX5 expression with observed synergistic efficacy (βobs). FIG. 4I depicts the correlation (Pearson r) of NOX5 expression with synergistic potency, where α2 is DPI's effect on PLX4720 potency. Error bars represent parameter uncertainty calculated in MCMC fitting.
To study NOX5's contribution to the potency or efficacy of BRAFi, PLX4720 was tested in combination with a NOX5 inhibitor, DPI, in a panel of 7 melanoma cell lines selected based on differential NOX5 expression. […] See also, Meyer et al. in Cell Systems (2010) vol 8, pages 97-108, which is hereby incorporated by reference for all purposes.

PC9 cells = test: MuSyC drug combination screen with osimertinib, DIP rate, high-throughput in vitro assay; conditions: for synergistic efficacy (in words): drug-synergy diagram; for observed synergistic efficacy (βobs): at the maximum tested dose range
Method: FIG. 2A illustrates a high-throughput pipeline for generating dose-response surfaces. Initial drug matrix is prepared on a 384-well plate and transferred to cells seeded at subconfluent densities. Cells are engineered to express a fluorescently tagged histone (H2B-RFP), allowing for cell counts using automated segmentation software. Each condition is imaged every 6-8 h, resulting in growth curves. The growth curves are fit to determine the drug-induced proliferation (DIP) rate (slope of dotted line, vide infra) to quantify drug effect. This matrix of DIP rates is fit to our equation to extract synergy parameters.
MuSyC was applied to evaluate the synergistic potency and efficacy of a 64-drug panel (see Table 1 for drugs, drug classes, nominal targets, and tested concentration ranges) in combination with osimertinib, a mutant EGFR-tyrosine kinase inhibitor recently approved for first-line treatment of EGFR-mutant NSCLC. The selected drugs span a diverse array of cellular targets that can be broadly grouped into four categories: kinases, receptors and channels, epigenetic regulators, and mitotic checkpoints, each with several sub-categories. The combinations were tested in PC9 cells, a canonical model of EGFR-mutant NSCLC using a high-throughput, in vitro, drug-screening assay (FIG. 2A).
Applying this algorithm, synergy parameters (α1, α2, and βobs) were extracted from fitted surfaces for all osimertinib combinations (βobs is the observed synergistic efficacy at the maximum tested dose range).

WM1799_SKIN = test: BRAFi sensitivity, DIP rate
Method: (§1) FIGS. 4A, 4B, and 4C depict data used to identify and characterize the top 200 differentially expressed genes (DEGs) between subclones of a BRAF-mutant melanoma cell line (SKMEL5) with differential sensitivity to BRAFi. FIG. 4A depicts growth curves of differentially sensitive, single-cell-derived subclones from SKMEL5 treated with 8 μM PLX4720. Gray curves represent colony growth according to the clonal fractional proliferation assay (Tyson, D. R. et al., Nature Methods (2012) Vol. 9, pp. 923-928). The average population response is indicated in the black curve. SC01, SC07, and SC10 were subsequently used to identify 200 DEGs. FIG. 4B depicts the top gene set enrichment terms for the identified 200 DEGs. FIG. 4C depicts a distribution of the correlation between the identified 200 DEGs' expression and BRAFi insensitivity. Drug sensitivity was quantified as DIP rate measured in 8 μM PLX4720. The threshold of p value <0.05 is annotated in pink.
(§2) Specifically, gene expression was quantified using RNA sequencing (RNA-seq) and the top 200 differentially expressed genes (DEGs) (FDR<0.001) were identified. […] The correlation was computed of the 200 DEGs' expression to BRAFi sensitivity across a 10-cell-line panel using expression data from Subramanian, A. et al. (2017). in Cell vol. 171, 1437-1452.e17.

SKMEL5_SKIN = test: BRAFi sensitivity, DIP rate
Method: as §1, §2

WM983B_SKIN = test: BRAFi sensitivity, DIP rate
Method: as §1, §2

WM115_SKIN = test: BRAFi sensitivity, DIP rate
Method: as §1, §2

WM2664_SKIN = test: BRAFi sensitivity, DIP rate
Method: as §1, §2

A375_SKIN = test: BRAFi sensitivity, DIP rate
Method: as §1, §2

WM88_SKIN = test: BRAFi sensitivity, DIP rate
Method: as §1, §2

A2058_SKIN = test: BRAFi sensitivity, DIP rate
Method: as §1, §2

WM793_SKIN = test: BRAFi sensitivity, DIP rate
Method: as §1, §2

SKMEL28_SKIN = test: BRAFi sensitivity, DIP rate
Method: as §1, §2

[1] = in combination with osimertinib, PC9 cells

SMILES: c1ccc2c(c1)[I+]c1ccccc1-2 [DPI]
- observed synergistic efficacy (βobs) (A2058): 1.42 ±0.05

SMILES: COC(=O)Nc1nc2ccc(Oc3ccc(NC(=O)Nc4ccccc4)cc3)cc2[nH]1 [GW694590a]
- synergistic efficacy (in words) (PC9 cells; [1]): synergistically efficacious

SMILES: CN(C)c1ccc(C(=O)NCCCCCCC(=O)NO)cc1 [M344]
- increase in efficacy over osimertinib alone (PC9 cells; [1]): 125%
- synergistic potency log(α2): how osimertinib's potency is modulated by the drug (PC9 cells; [1]): −0.90±0.01
- observed synergistic efficacy (βobs) (PC9 cells; [1]): 1.25±0.03

SMILES: CCCS(=O)(=O)Nc1ccc(F)c(C(=O)c2c[nH]c3ncc(Cl)cc23)c1F [PLX4270]
- DIP Rate at [8 uM] PLX4270 (WM1799_SKIN): -0.002 h⁻¹
- DIP Rate at [8 uM] PLX4270 (SKMEL5_SKIN): 0.014 h⁻¹
- DIP Rate at [8 uM] PLX4270 (WM983B_SKIN): 0.021 h⁻¹
- DIP Rate at [8 uM] PLX4270 (WM115_SKIN): 0.013 h⁻¹
- DIP Rate at [8 uM] PLX4270 (WM2664_SKIN): 0.003 h⁻¹
- DIP Rate at [8 uM] PLX4270 (A375_SKIN): 0.005 h⁻¹
- DIP Rate at [8 uM] PLX4270 (WM88_SKIN): -0.020 h⁻¹
- DIP Rate at [8 uM] PLX4270 (A2058_SKIN): 0.030 h⁻¹
- DIP Rate at [8 uM] PLX4270 (WM793_SKIN): 0.015 h⁻¹
- DIP Rate at [8 uM] PLX4270 (SKMEL28_SKIN): 0.010 h⁻¹

SMILES: Cc1cc(Nc2ncc(Cl)c(Nc3ccccc3S(=O)(=O)C(C)C)n2)c(OC(C)C)cc1C1CCNCC1 [ceritinib]
- EC50 (PC9 cells; Homo sapiens, PC-9, single agent, PC9 cells, DIP rate): 2020 nM
- synergistic potency log(α2): how osimertinib's potency is modulated by the drug (PC9 cells; [1]): 6.25±0.50
- observed synergistic efficacy (βobs) (PC9 cells; [1]): 0.28 ±0.003

SMILES: CCCCc1oc2ccc(NS(C)(=O)=O)cc2c1C(=O)c1ccc(OCCCN(CCCC)CCCC)cc1 [dronedarone]
- synergistic efficacy (in words) (PC9 cells; [1]): most antagonistic

SMILES: Nc1ccccc1NC(=O)c1ccc(CNC(=O)OCc2cccnc2)cc1 [entinostat]
- observed synergistic efficacy (βobs) (PC9 cells; [1]): 0.84±0.027

SMILES: Cn1cc(CNCC2CCN(c3ncc(C(=O)NO)cn3)CC2)c2ccccc21 [quisinostat]
- total efficacy of the combination (in words) (PC9 cells; in combination with osimertinib, NSCLC screen): greatest total efficacy

SMILES: CC[C@]1(O)C[C@@H]2CN(CCc3c([nH]c4ccccc34)[C@@](C(=O)OC)(c3cc4c(cc3OC)N(C)[C@H]3[C@@](O)(C(N)=O)[C@H](O)[C@]5(CC)C=CCN6CC[C@]43[C@@H]65)C2)C1 [vindesine]
- synergistic efficacy (in words) (PC9 cells; [1]): upward shift along the axis of synergistic efficacy
